# In ChEMBL document CHEMBL1142411, “Antileishmanial compounds from Cordia fragrantissima collected in Burma (Myanmar)” (J Nat Prod, 2008):
# Peptide text beside a SMILES is read from it. * marks the point of attachment. Cbz = O=C(OCc1ccccc1)*
# Tests used:
# [1] = system: Leishmania major; experiment: Antileishmanial activity against Leishmania major promastigotes after 48 hrs by MTT method; format: functional, organism-based
# [2] = system: Leishmania panamensis; experiment: Antileishmanial activity against Leishmania panamensis promastigotes after 48 hrs by MTT method; format: functional, organism-based
# [3] = system: Leishmania guyanensis; experiment: Antileishmanial activity against Leishmania guyanensis promastigotes after 48 hrs by MTT method; format: functional, organism-based
# [4] = Cytotoxicity against african green monkey COS7 cells by XTT method; format: cell-based; conditions: Chlorocebus aethiops, COS-7
# [5] = system: Huh-7; experiment: Cytotoxicity against human HuH7 cells by XTT method; format: functional, cell-based
SMILES,IC50 [1] [µg/mL],IC50 [2] [µg/mL],IC50 [3] [µg/mL],IC50 [4],IC50 [5]
C[C@@H]1[C@H](O)[C@@H](C)/C=C/C=C/C=C/C=C/C=C/C=C/C=C/[C@H](O[C@@H]2O[C@H](C)[C@@H](O)[C@H](N)[C@@H]2O)C[C@@H]2O[C@](O)(C[C@@H](O)C[C@@H](O)[C@H](O)CC[C@@H](O)C[C@@H](O)CC(=O)O[C@H]1C)C[C@H](O)[C@H]2C(=O)O [AMPHOTERICIN B],< 0.1,< 0.1,< 0.1,,
C/C(C=O)=C\CC/C(C)=C/Cc1cc(O)ccc1O [ALLIODORIN],7,1.8,2,31.9 µg/mL,44.8 µg/mL
C=C[C@@]1(C)Cc2c(OC(C)=O)ccc(OC(C)=O)c2C[C@H]1C(=C)C [ACETYLCORDIAQUINOL C],1.4,,,20.1 µg/mL,60.9 µg/mL
CC(C)C[C@@H](C=O)NC(=O)[C@H](CC(C)C)NC(=O)[C@H](CC(C)C)NC(=O)OCc1ccccc1 [MG-132] (Cbz-Leu-Leu-Leu-aldehyde),,,,< 10 µM,< 10 µM
C=C1CCC[C@@]2(C)CC3=C(C[C@@H]12)C(=O)C=CC3=O [CORDIACHROME B],2.5,,,14.6 µg/mL,71.5 µg/mL
C=C[C@@]1(C)CC2=C(C[C@H]1C(=C)C)C(=O)C=CC2=O [Cordiachrome C],21.1,5.5,6,,
CC1=CCC[C@@]2(C)CC3=C(C[C@@H]12)C(=O)C=CC3=O [CORDIACHROME A],4.1,,,22.5 µg/mL,61.1 µg/mL
C=C[C@@]1(C)Cc2c(O)ccc(O)c2C[C@H]1C(=C)C,4.5,,,,
CC1=C2C(=O)c3c(O)ccc(O)c3CC2(C)CCC1=O (racemic),81.4,13,7,51.7 µg/mL,71.8 µg/mL
CC1(O)CCCC2(C)Cc3c(O)ccc(O)c3CC12 (racemic),2.7,1.8,3,> 100 µg/mL,41.7 µg/mL
CC(=O)Oc1ccc(OC(C)=O)c2c1CC1(C)CCC(=O)C(C)=C1C2=O (racemic),80.4,,,50.7 µg/mL,65.5 µg/mL
C/C(C=O)=C\CCC(C)(O)/C=C\c1cc(O)ccc1O (racemic),> 25,,,> 100 µg/mL,> 100 µg/mL
CC1=C2C(=O)c3c(OC(=O)c4ccc(Br)cc4)ccc(OC(=O)c4ccc(Br)cc4)c3CC2(C)CCC1=O (racemic),23.5,,,> 100 µg/mL,> 100 µg/mL
